Experimental data as given in patent US20180099931A1 (AbbVie S.à.r.l., priority 2016, published 2018).
pEC50: −log10 of the molar value. Read-outs that look alike come from different tables or passages of the source.

Target: T1, F508delCFTR (Homo sapiens, UniProt P13569, DEL508-508)
T1 construct: expressed in transfected cells; host or cells: CFBE41o- human lung-derived epithelial cells (CFBE4lo-F508delCFTR-HRP), doxycycline-inducible
Experiment: Cell Surface Expression-Horse Radish Peroxidase (CSE-HRP) Assay;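 for Maximum % activity (with co-corrector): co-corrector and positive control are both the same reference corrector at 2 µM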;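 for Maximum % activity (without co-corrector): percent of the 2 µM on-plate positive control corrector response above DMSO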
Assay type: cell-based
Details: for Emax / Maximum % activity (with co-corrector): maximum at any tested concentration, normalized to on-plate positive control; for Emax: read-out: Maximum % activity (without co-corrector)

[1] = test compound without co-corrector
[2] = test compound without co-corrector, read-out: EC50 (without co-corrector)
[3] = with co-corrector (2 μM of 3-[(2R,4R)-4-({[1-(2,2-difluoro-1,3-benzodioxol-5-yl)cyclopropyl]carbonyl}amino)-7-methoxy-3,4-dihydro-2H-chromen-2-yl]benzoic acid)
[4] = with co-corrector (2 μM of 3-[(2R,4R)-4-({[1-(2,2-difluoro-1,3-benzodioxol-5-yl)cyclopropyl]carbonyl}amino)-7-methoxy-3,4-dihydro-2H-chromen-2-yl]benzoic acid), read-out: EC50 (with co-corrector)

T1 sequence (P13569 with tags, fused parts or gaps DEL508-508): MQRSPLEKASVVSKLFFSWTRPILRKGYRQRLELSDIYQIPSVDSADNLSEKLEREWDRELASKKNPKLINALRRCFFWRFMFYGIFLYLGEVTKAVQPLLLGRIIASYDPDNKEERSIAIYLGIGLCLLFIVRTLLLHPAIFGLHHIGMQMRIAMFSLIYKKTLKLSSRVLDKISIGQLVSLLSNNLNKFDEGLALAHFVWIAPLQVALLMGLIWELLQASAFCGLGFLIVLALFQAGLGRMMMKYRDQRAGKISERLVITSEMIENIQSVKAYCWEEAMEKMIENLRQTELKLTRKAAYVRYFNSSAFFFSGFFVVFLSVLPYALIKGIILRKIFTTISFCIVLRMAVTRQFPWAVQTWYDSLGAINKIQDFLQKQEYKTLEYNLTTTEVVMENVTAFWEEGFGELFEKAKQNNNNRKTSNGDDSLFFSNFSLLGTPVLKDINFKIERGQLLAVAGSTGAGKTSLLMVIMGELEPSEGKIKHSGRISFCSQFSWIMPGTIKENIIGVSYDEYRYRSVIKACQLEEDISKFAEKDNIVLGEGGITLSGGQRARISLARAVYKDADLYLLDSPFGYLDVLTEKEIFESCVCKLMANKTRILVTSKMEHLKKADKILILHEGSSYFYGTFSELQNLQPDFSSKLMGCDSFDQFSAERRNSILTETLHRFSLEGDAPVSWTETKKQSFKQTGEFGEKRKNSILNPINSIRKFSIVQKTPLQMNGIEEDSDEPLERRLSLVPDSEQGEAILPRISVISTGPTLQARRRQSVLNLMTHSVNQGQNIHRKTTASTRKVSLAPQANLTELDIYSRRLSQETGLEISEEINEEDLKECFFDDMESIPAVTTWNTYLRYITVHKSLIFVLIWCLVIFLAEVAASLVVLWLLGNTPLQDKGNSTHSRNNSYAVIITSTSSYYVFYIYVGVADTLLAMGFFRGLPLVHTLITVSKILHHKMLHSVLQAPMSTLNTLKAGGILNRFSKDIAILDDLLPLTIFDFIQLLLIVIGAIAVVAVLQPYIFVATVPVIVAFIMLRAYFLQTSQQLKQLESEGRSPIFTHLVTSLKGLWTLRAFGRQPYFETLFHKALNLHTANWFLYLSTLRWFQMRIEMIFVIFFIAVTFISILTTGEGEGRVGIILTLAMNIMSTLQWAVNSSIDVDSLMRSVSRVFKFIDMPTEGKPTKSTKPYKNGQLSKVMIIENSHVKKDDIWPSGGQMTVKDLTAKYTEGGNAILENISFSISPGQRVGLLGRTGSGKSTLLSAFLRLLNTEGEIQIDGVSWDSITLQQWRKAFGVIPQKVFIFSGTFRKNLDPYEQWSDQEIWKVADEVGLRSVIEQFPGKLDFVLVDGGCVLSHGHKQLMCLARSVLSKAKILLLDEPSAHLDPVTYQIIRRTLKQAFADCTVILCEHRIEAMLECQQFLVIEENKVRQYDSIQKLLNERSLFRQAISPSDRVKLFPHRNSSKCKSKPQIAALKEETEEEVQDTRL

| Emax [1] [%] | pEC50 [2] | Maximum % activity (with co-corrector) [3] | pEC50 [4] | Compound |
| --- | --- | --- | --- | --- |
| < 100 | 5.00 to 6.00 | +++ (≥350) | 5.00 to 6.00 | Cc1cc(C(F)(F)F)cc(N[C@H]2[C@H](C(C)(C)C)[C@@H](C(=O)O)N(C(=O)C3CCCC(F)(F)C3)[C@H]2c2cccnc2N(C)C)n1 (some centres unmarked) [II-503] |
| 100 to 200 | 5.00 to 6.00 | +++ (≥350) | > 6.00 | COc1cc(C(F)(F)F)ccc1CN[C@H]1[C@H](C(C)(C)C)[C@@H](C(=O)O)N(C(=O)C2CCCC(F)(F)C2)[C@H]1c1ccccc1 (some centres unmarked) [II-508] |
| > 200 | > 6.00 | +++ (≥350) | > 6.00 | COc1ccc(C23CC(C2)C3)cc1CN[C@H]1[C@H](C(C)(C)C)[C@@H](C(=O)O)N(C(=O)[C@H]2CCCC(F)(F)C2)[C@H]1c1ccccc1 [II-509] |
| > 200 | 5.00 to 6.00 | +++ (≥350) | 5.00 to 6.00 | COc1ncc(C(F)(F)F)cc1CN[C@H]1[C@H](C(C)(C)C)[C@@H](C(=O)O)N(C(=O)OC(C)C)[C@H]1c1cccnc1N(C)C [II-510] |
| 100 to 200 | 5.00 to 6.00 | +++ (≥350) | 5.00 to 6.00 | COc1ccc(C(C)(C)C)cc1CN[C@H]1[C@H](C(C)(C)C)[C@@H](C(=O)O)N(C(=O)OC(C)C)[C@H]1c1cccnc1OC [II-511] |
| 100 to 200 | 5.00 to 6.00 | +++ (≥350) | 5.00 to 6.00 | COc1ncc(C(F)(F)F)cc1CN[C@H]1[C@H](C(C)(C)C)[C@@H](C(=O)O)N(C(=O)OC(C)C)[C@H]1c1cccnc1OC [II-512] |
| 100 to 200 | 5.00 to 6.00 | +++ (≥350) | 5.00 to 6.00 | COc1cc(C(F)(F)F)ccc1CN[C@H]1[C@H](C(C)(C)C)[C@@H](C(=O)O)N(C(=O)OC(C)C)[C@H]1c1cccnc1OC [II-513] |
| 100 to 200 | 5.00 to 6.00 | +++ (≥350) | 5.00 to 6.00 | COc1cc(C(F)(F)F)ccc1CN[C@H]1[C@H](C(C)(C)C)[C@@H](C(=O)O)N(C(=O)OC(C)C)[C@H]1c1cccnc1N(C)C [II-514] |
| 100 to 200 | 5.00 to 6.00 | +++ (≥350) | 5.00 to 6.00 | COc1ccc(C(C)(C)C)cc1CN[C@H]1[C@H](C(C)(C)C)[C@@H](C(=O)O)N(C(=O)[C@@H]2CCC[C@H](O)C2)[C@H]1c1ccccc1 [II-515] |
| > 200 | 5.00 to 6.00 | +++ (≥350) | > 6.00 | COc1ccc(C23CC(C2)C3)cc1CN[C@H]1[C@H](C(C)(C)C)[C@@H](C(=O)O)N(C(=O)[C@H]2CCC[C@H](OC)C2)[C@H]1c1ccccc1 [II-516] |
| > 200 | 5.00 to 6.00 | +++ (≥350) | > 6.00 | COc1ccc(C23CC(C2)C3)cc1CN[C@H]1[C@H](C(C)(C)C)[C@@H](C(=O)O)N(C(=O)C2CCCCC2)[C@H]1c1ccccc1F [II-517] |
| 100 to 200 | 5.00 to 6.00 | +++ (≥350) | 5.00 to 6.00 | COc1ncc(C2CCC2)cc1CN[C@H]1[C@H](C(C)(C)C)[C@@H](C(=O)O)N(C(=O)C2C3CCCC32)[C@H]1c1cccnc1N(C)C (some centres unmarked) [II-518] |
| 100 to 200 | 5.00 to 6.00 | +++ (≥350) | > 6.00 | COc1nc(C(C)(C)C)ccc1CN[C@H]1[C@H](C(C)(C)C)[C@@H](C(=O)O)N(C(=O)OC(C)C)[C@H]1c1ccccc1F [II-519] |
| > 200 | 5.00 to 6.00 | +++ (≥350) | > 6.00 | COc1ccc(C23CC(C2)C3)cc1CN[C@H]1[C@H](C(C)(C)C)[C@@H](C(=O)O)N(C(=O)C2CCCCC2)[C@H]1c1cccnc1N(C)C [II-520] |
| < 100 | 5.00 to 6.00 | ++ (≥150 and <350) | 5.00 to 6.00 | COc1nc(C(C)(C)C)ccc1CN[C@H]1[C@H](C(C)(C)C)[C@@H](C(=O)O)N(C(=O)[C@H]2CCCCO2)[C@H]1c1cccnc1N(C)C [II-521] |
| > 200 | 5.00 to 6.00 | +++ (≥350) | 5.00 to 6.00 | COc1ccc(OC(F)(F)F)cc1CN[C@H]1[C@H](C(C)(C)C)[C@@H](C(=O)O)N(C(=O)OC(C)C)[C@H]1c1ccccc1 [II-523] |
| 100 to 200 | 5.00 to 6.00 | +++ (≥350) | 5.00 to 6.00 | COc1ccc(OC(F)(F)F)cc1CN[C@H]1[C@H](C(C)(C)C)[C@@H](C(=O)O)N(C(=O)C2CCCCC2)[C@H]1c1cccnc1OC [II-524] |
| 100 to 200 | 5.00 to 6.00 | +++ (≥350) | 5.00 to 6.00 | COc1nc(C(C)(C)C)ccc1CN[C@H]1[C@H](C(C)(C)C)[C@@H](C(=O)O)N(C(=O)C2CCCCC2)[C@H]1c1ccccc1F [II-525] |
| 100 to 200 | 5.00 to 6.00 | +++ (≥350) | 5.00 to 6.00 | COc1ccc(C(C)(C)C)cc1CN[C@H]1[C@H](C(C)(C)C)[C@@H](C(=O)O)N(C(=O)[C@@H]2CCC[C@](C)(O)C2)[C@H]1c1ccccc1 [II-526] |
| 100 to 200 | 5.00 to 6.00 | +++ (≥350) | 5.00 to 6.00 | COc1ccc(SC(F)(F)F)cc1CN[C@H]1[C@H](C(C)(C)C)[C@@H](C(=O)O)N(C(=O)C2CCCCC2)[C@H]1c1cccnc1OC [II-527] |
| 100 to 200 | 5.00 to 6.00 | +++ (≥350) | 5.00 to 6.00 | COc1nc(C(C)(C)C)ccc1CN[C@H]1[C@H](C(C)(C)C)[C@@H](C(=O)O)N(C(=O)C2CCCCC2)[C@H]1c1ccccc1OC(F)F [II-528] |
| 100 to 200 | 5.00 to 6.00 | +++ (≥350) | 5.00 to 6.00 | COc1ncc(C2CCC2)cc1CN[C@H]1[C@H](C(C)(C)C)[C@@H](C(=O)O)N(C(=O)[C@@H]2CCCCO2)[C@H]1c1ccccc1F [II-531] |
| > 200 | 5.00 to 6.00 | +++ (≥350) | > 6.00 | COc1ncc(C2CCC2)cc1CN[C@H]1[C@H](C(C)(C)C)[C@@H](C(=O)O)N(C(=O)[C@@H]2CCC[C@@H](F)C2)[C@H]1c1ccccc1 [II-532] |
| > 200 | 5.00 to 6.00 | +++ (≥350) | 5.00 to 6.00 | COc1ccc(C(C)(C)C)cc1CN[C@H]1[C@H](C(C)(C)C)[C@@H](C(=O)O)N(C(=O)[C@@H]2CCC[C@@](C)(O)C2)[C@H]1c1ccccc1 [II-533] |
| > 200 | 5.00 to 6.00 | +++ (≥350) | 5.00 to 6.00 | COc1ccc(S(F)(F)(F)(F)F)cc1CN[C@H]1[C@H](C(C)(C)C)[C@@H](C(=O)O)N(C(=O)OC(C)C)[C@H]1c1ccccc1 [II-535] |
| > 200 | 5.00 to 6.00 | +++ (≥350) | 5.00 to 6.00 | COc1ccc(C2(C)CCC2)cc1CN[C@H]1[C@H](C(C)(C)C)[C@@H](C(=O)O)N(C(=O)OC(C)C)[C@H]1c1ccccc1 [II-537] |
| 100 to 200 | 5.00 to 6.00 | +++ (≥350) | 5.00 to 6.00 | COc1cc(C(F)(F)F)ccc1CN[C@H]1[C@H](C(C)(C)C)[C@@H](C(=O)O)N(C(=O)[C@@H]2CCC[C@H](O)C2)[C@H]1c1ccccc1 [II-538] |
| < 100 | 5.00 to 6.00 | ++ (≥150 and <350) | 5.00 to 6.00 | COc1ccc(C(C)(C)C)cc1CN[C@H]1[C@H](C(C)(C)C)[C@@H](C(=O)O)N(C(=O)[C@@H](C)c2ccccc2)[C@H]1c1cccnc1OC [II-539] |
| > 200 | 5.00 to 6.00 | +++ (≥350) | > 6.00 | COc1ccc(C(C)(C)C)cc1CN[C@H]1[C@H](C(C)(C)C)[C@@H](C(=O)O)N(C(=O)[C@@H]2CCC[C@@H](OC(F)(F)F)C2)[C@H]1c1cccnc1OC [II-540] |
